Our source for the pIC50(app), IC50 and Activity values is ChEMBL document CHEMBL3813635, “Development of new Malt1 inhibitors and probes” (Bioorg Med Chem, 2016).

The source made the active and inactive calls. The calls are words filed in the database; no cut-off is given here.

The target in assay [1] is T1, Mucosa-associated lymphoid tissue lymphoma translocation protein 1 (Homo sapiens) (UniProt Q9UDY8).
T1 sequence (whole entry): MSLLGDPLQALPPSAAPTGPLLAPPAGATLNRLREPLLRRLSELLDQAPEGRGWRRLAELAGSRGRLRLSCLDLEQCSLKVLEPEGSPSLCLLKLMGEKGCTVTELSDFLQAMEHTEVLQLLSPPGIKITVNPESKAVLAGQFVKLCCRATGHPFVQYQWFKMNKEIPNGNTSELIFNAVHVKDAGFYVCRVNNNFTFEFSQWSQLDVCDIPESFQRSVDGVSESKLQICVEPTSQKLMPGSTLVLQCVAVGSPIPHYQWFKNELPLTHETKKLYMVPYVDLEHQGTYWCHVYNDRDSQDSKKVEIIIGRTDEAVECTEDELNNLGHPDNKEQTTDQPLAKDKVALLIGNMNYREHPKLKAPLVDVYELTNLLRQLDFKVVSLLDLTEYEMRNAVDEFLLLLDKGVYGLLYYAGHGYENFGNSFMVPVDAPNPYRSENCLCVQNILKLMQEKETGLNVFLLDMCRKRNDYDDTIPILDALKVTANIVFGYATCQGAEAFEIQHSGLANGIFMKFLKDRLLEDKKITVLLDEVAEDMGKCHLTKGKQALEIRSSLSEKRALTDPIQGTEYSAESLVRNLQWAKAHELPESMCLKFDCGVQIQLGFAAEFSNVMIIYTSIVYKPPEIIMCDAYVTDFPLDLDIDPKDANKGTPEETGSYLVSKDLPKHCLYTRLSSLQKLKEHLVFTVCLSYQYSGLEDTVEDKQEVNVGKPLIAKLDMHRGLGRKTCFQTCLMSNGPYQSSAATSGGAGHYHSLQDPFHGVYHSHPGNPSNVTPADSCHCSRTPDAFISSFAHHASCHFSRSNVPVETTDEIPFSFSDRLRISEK
Description: (§1) Inhibition of recombinant Malt1 (unknown origin) at 10 to 1000 uM preincubated for 1 hr followed by (S)-1-((6-(4-(4-(5,5-Difluoro-3,7-bis(4-methoxyphenyl)-5H-4l4,5l4-dipyrrolo[1,2-c:20,10-f][1,3,2]diazaborinin-10-yl)butyl)-1H-1,2,3-triazol-1-yl)hexanoyl)-L-valyl-L-arginyl)-N-((S)-1-fluoro-6-guanidino-2-oxohexan-3-yl)pyrrolidine-2-carboxamide addition and incubated for 1 hr by SDS-PAGE based competitive activity-based protein profiling assay.

The target of assay [2] is T2, Mucosa-associated lymphoid tissue lymphoma translocation protein 1 (Homo sapiens, UniProt Q9UDY8).
T2 sequence (Q9UDY8 whole entry): T1 sequence (whole entry)
The description is as §1.

In assay [3] the target is T1, Mucosa-associated lymphoid tissue lymphoma translocation protein 1 (Homo sapiens). Kind of assay: (§2) Inhibition of recombinant Malt1 (unknown origin) at 1 to 100 uM preincubated for 1 hr followed by (S)-1-((6-(4-(4-(5,5-Difluoro-3,7-bis(4-methoxyphenyl)-5H-4l4,5l4-dipyrrolo[1,2-c:20,10-f][1,3,2]diazaborinin-10-yl)butyl)-1H-1,2,3-triazol-1-yl)hexanoyl)-L-valyl-L-arginyl)-N-((S)-1-fluoro-6-guanidino-2-oxohexan-3-yl)pyrrolidine-2-carboxamide addition and incubated for 1 hr by SDS-PAGE based competitive activity-based protein profiling assay.

Assay [4] concerns the target T2, Mucosa-associated lymphoid tissue lymphoma translocation protein 1. Described as §2.
The target of assay [5] is T1, Mucosa-associated lymphoid tissue lymphoma translocation protein 1 (Homo sapiens). Description: Binding affinity to recombinant GST-Malt1 (325 to 760 residues) (unknown origin) assessed as protein labeling at 1 uM after 1 hr by SDS-PAGE based activity-based protein profiling assay.
A further assay concerns Jurkat. Kind of assay: Binding affinity to Malt1 C/A mutant (unknown origin) overexpressed in human Jurkat T cells assessed as protein labeling at 1 uM after 50 mins by Western blot analysis. Format: cell-based.
Assay [6] addresses T1, Mucosa-associated lymphoid tissue lymphoma translocation protein 1 (Homo sapiens). Description: Binding affinity to Malt1 in phorbol 12-myristate 13-acetate/ionomycin stimulated human Jurkat T cells assessed as protein labeling at 1 uM after 50 mins by SDS-PAGE based activity-based protein profiling assay. Format: cell-based.
The target is the same in assay [7]. Kind of assay: Binding affinity to Flag-tagged Malt1 (unknown origin) overexpressed in human Jurkat T cells assessed as protein labeling at 1 uM after 50 mins by Western blot analysis. The assay is classed as cell-based. For orientation: A western blot detects proteins with antibodies after separation by electrophoresis.
For assay [8] the target is unchanged. Kind of assay: Binding affinity to Malt1 in phorbol 12-myristate 13-acetate/ionomycin stimulated human Jurkat T cells assessed as protein labeling at 1 to 3 uM after 50 mins by SDS-PAGE based activity-based protein profiling assay. The assay is classed as cell-based.
Assay [9] has the same target. Description: Binding affinity to recombinant GST-Malt1 (325 to 760 residues) (unknown origin) assessed as protein labeling at 0.05 to 0.5 uM after 1 hr by SDS-PAGE based activity-based protein profiling assay.
Assay [10] shares this target. Description: Binding affinity to Malt1 in phorbol 12-myristate 13-acetate/ionomycin stimulated human Jurkat T cells assessed as protein labeling at 3 uM after 50 mins by SDS-PAGE based activity-based protein profiling assay. The assay is classed as cell-based.
The target is the same in assay [11]. Kind of assay: Binding affinity to recombinant GST-Malt1 (325 to 760 residues) (unknown origin) assessed as protein labeling at 0.1 to 1 uM after 1 hr by SDS-PAGE based activity-based protein profiling assay.

As to `COCCOc1nc(-c2cccc(Br)c2)n(-c2ccc(NC(=O)CCl)cc2)n1`, in [1], the pIC50(app) is 4.78. In assay [2], the IC50 was 17 µM.

Regarding `C=CC(=O)Nc1ccc(-n2nc(OCCOC)nc2-c2ccc(Cl)c(Cl)c2)cc1`, the pIC50(app) in [1] stood at 4.47. In addition, the IC50 in [2] came to 34 µM.

As for `COCCOc1nc(-c2ccc(C)cc2)n(-c2ccc(NC(=O)CCl)cc2)n1`, the pIC50(app) in assay [1] worked out at 5.05; in [3], 5.09. For the same compound, the figures for the IC50 in [2] and in assay [4] were 9 µM and 8.2 µM, respectively.

On to `COCCOc1nc(-c2ccc(C)c(C)c2)n(-c2ccc(NC(=O)CCl)cc2)n1`, for which the pIC50(app) in assay [1] amounted to 4.82. For the same compound, the IC50 in assay [2] was determined as 15 µM.

For the compound `COCCOc1nc(-c2ccc(Cl)c(Cl)c2)n(-c2ccc(NC(=O)CCl)cc2)n1`, the pIC50(app) in assay [3] came to 5.11. The IC50 in assay [4] was 7.8 µM.

For the compound `COCCOc1nc(-c2ccc(F)c(F)c2)n(-c2ccc(NC(=O)CCl)cc2)n1`, the pIC50(app) in assay [1] came to 4.59. For the same compound, the IC50 in [2] is 26 µM.

For the compound `COCCOc1nc(-c2cccc(OC)c2)n(-c2ccc(NC(=O)CCl)cc2)n1`, the pIC50(app) in assay [1] turned out to be 3.71. Also, the IC50 in [2] is 194 µM.

For the compound `COCCOc1nc(-c2ccc3c(c2)OCO3)n(-c2ccc(NC(=O)CCl)cc2)n1`, the pIC50(app) in assay [1] came out at 4.06. Moreover, the IC50 in [2] was 88 µM.

With `COCCOc1nc(-c2ccc(OC)c(OC)c2)n(-c2ccc(NC(=O)CCl)cc2)n1`, in assay [1], the pIC50(app) turned out to be 4.92. The IC50 in assay [2] turned out to be 12 µM.

Consider `CC1=CC(C)=[N+]2C1=Cc1ccc(CCC(=O)N[C@@H](CC(C)C)C(=O)N[C@@H](CCCNC(=N)N)C(=O)N[C@@H](CO)C(=O)N[C@@H](CCCNC(=N)N)C(=O)COC(=O)c3c(C)cccc3C)n1[B-]2(F)F`, for which the outcome in [5], in assay [6] and in assay [7] was Active. Further, the result in the assay on Jurkat was inactive.

For `COCCOc1nc(-c2cccc(C)c2)n(-c2ccc(NC(=O)CCl)cc2)n1`, the pIC50(app) in assay [1] was found to be 3.56. For the same compound, the IC50 in [2] came out at 278 µM.

For the compound `COCCOc1nc(-c2cccc(Cl)c2)n(-c2ccc(NC(=O)CCl)cc2)n1`, the pIC50(app) in assay [1] was 4.57. For the same compound, the IC50 in assay [2] came out at 26 µM.

With `COCCOc1nc(-c2ccccc2)n(-c2ccc(NC(=O)CCl)cc2)n1`, the pIC50(app) in [1] stood at 4.01. In addition, the IC50 in assay [2] came to 98 µM.

Consider `COCCOc1nc(-c2ccc(OC)cc2)n(-c2ccc(NC(=O)CCl)cc2)n1`, for which the pIC50(app) in [1] was determined as 4.35. Also, in assay [2], the IC50 is 45 µM.

As for `CN1\C(=C/C=C/C=C/C2=[N+](CCCCCC(=O)NCCOc3nc(-c4ccc(Cl)c(Cl)c4)n(-c4ccc(NC(=O)CCl)cc4)n3)c3ccccc3C2(C)C)C(C)(C)c2ccccc21`, the outcome (in assay [5]; in the assay with Jurkat; in assay [7]) was Active. Further, the outcome in [8] and in assay [9] was inactive.

For the compound `COCCOc1nc(-c2ccc(Cl)cc2)n(-c2ccc(NC(=O)CCl)cc2)n1`, the pIC50(app) in [1] came out at 5.81; in [3] it was 5.52. The IC50 in [2] came out at 1.6 µM; in assay [4], 3 µM.

On to `COCCOc1nc(-c2cccc(F)c2)n(-c2ccc(NC(=O)CCl)cc2)n1`, for which the pIC50(app) in assay [1] is 4.05. In addition, the IC50 in assay [2] amounted to 88 µM.

Consider `COCCOc1nc(-c2ccc(C(F)(F)F)cc2)n(-c2ccc(NC(=O)CCl)cc2)n1`, for which the pIC50(app) in assay [1] was found to be 4.66. In addition, the IC50 in assay [2] is 22 µM.

Turning to `COCCOc1nc(-c2ccc(-c3ccccc3)cc2)n(-c2ccc(NC(=O)CCl)cc2)n1`, the pIC50(app) in assay [1] is 4.66. For the same compound, in assay [2], the IC50 worked out at 22 µM.

For the compound `COCCOc1nc(-c2cccc(C(F)(F)F)c2)n(-c2ccc(NC(=O)CCl)cc2)n1`, the pIC50(app) in [1] came out at 4.03. Moreover, in [2], the IC50 was 93 µM.

For `COc1ccc(C2=[N+]3C(=C(CCCCc4cn(CCCCCC(=O)N[C@H](C(=O)N[C@@H](CCCNC(=N)N)C(=O)N5CCC[C@H]5C(=O)N[C@@H](CCCNC(=N)N)C(=O)CF)C(C)C)nn4)c4ccc(-c5ccc(OC)cc5)n4[B-]3(F)F)C=C2)cc1`, the result (in the assay on Jurkat; in [6]) was inactive. The result in [10], in assay [11] and in [7] was Active.

Consider `COCCOc1nc(-c2ccc(F)cc2)n(-c2ccc(NC(=O)CCl)cc2)n1`, for which the values for the pIC50(app) in [1] and in assay [3] were 5.17 and 4.99, respectively. Moreover, the IC50 stood at 6.8 µM in assay [2] and 10 µM in assay [4].

Take `COCCOc1nc(-c2ccc(Br)cc2)n(-c2ccc(NC(=O)CCl)cc2)n1`: the pIC50(app) is 5.82 in assay [1] and 5.68 in assay [3]. In addition, the values for the IC50 in assay [2] and in [4] were 1.5 µM and 2.1 µM, respectively.

The IC50 is the point on the concentration scale where inhibition reaches its midpoint.
